Results as given in patent publication US20250221981A1, “MAT2A INHIBITOR AND/OR TSG101 INHIBITOR FOR USE IN ANTIVIRAL THERAPY” (CAMBRIDGE ENTERPRISE LIMITED, priority 2022, published 2025).

Experiments:
BKPyV [1] = test: Fluorescence focus unit (FFU) assay of infectious BKPyV from treated RPTE/TERT1 cells; format: cell-based, BK polyomavirus; conditions: added 1 hr post infection, MOI 1
Protocol: (B) Effect of PF-9366 on viral replication: Cells were infected with BKPyV (MOI 1) in media containing appropriate drug concentrations. At 1 hpi infectious media was removed, cells were washed and fresh media with appropriate drug concentrations was added. At 48 hpi cells were harvested and infectious BKPyV was measured by FFU assay. n=3.
(§1) Cells were treated with MAT2A inhibitors at 1 hr post infection and were harvested at 48 hr post infection at MOI 1. (A) Total infectious BKPyV synthesis expressed as fold change to DMSO control (FFU titre assay). (B) Total viral protein expression (LTAg and VP1) was analysed by western blot. Tubulin was used as loading control. All error bars represent SEM. Two sample paired T-test was used to determine significance (*p<0.05; **p<0.01; ***p<0.001, ****p<0.0001), all numerical data shown were obtained over 2 independent experiments.
(§2) RPTE/hTERT cells were treated with inhibitors at 1 hr post infection (PI), infected at MOI 1. (A) Viral growth curves using FFU titre assay in drug treated and untreated cells infected with BKPyV at MOI 1 for 48 hr PI, 72 hr PI and 96 hr PI. (B) Total viral protein expression (LTAg and VP1) from drug treatments and untreated control was analysed by western blot with samples harvested at 48 hr PI and 96 hr PI. Tubulin was used as loading control. All error bars represent SEM. All numerical data shown were obtained over 2 independent experiments.
The ability for PF-9366 to inhibit the production of infectious virus was then investigated. RPTE/TERT1 cells were once again treated with a concentration range of PF-9366 or DMSO as a control prior to infection, and as before, infected with BKPyV (MOI 1) then washed and media replaced at 1 hpi. At 48 hpi total virus was harvested from each condition and an FFU assay was conducted to determine BKPyV virus titre (FIG. 3B).
For BKPyV infections, RPTE/TERT1, RPTE/TERT1-Cas9 or RPTE/TERT1 MAT2A KO cells were infected with BKPyV at either a multiplicity of infection (MOI) of 5 for growth curves or an MOI of 3 or 1 for all other experiments, diluted in appropriate medium. At 1 hour post infection (hpi) medium was removed, cells were washed twice with phosphate-buffered saline (PBS), and fresh medium was added with or without inhibitors. At 24, 48, 72 or 96 hpi cells were either harvested for western blot, RT qPCR or virus titre by FFU assay, or fixed for immunofluorescence analysis.
FFU assays were used to determine the concentration of infectious BKPyV in experimental samples. RPTE/TERT1 cells were infected with sample dilutions, fixed at 48 hpi in 3% formaldehyde, and immunostained for VP1 expression as described in Evans et al. (Open Biol. 2015 August; 5 (8): 150041).
Example 1: PF-9366 (Sigma-Aldrich) and AG-270 (kindly supplied by Astra Zeneca) were diluted in 100% DMSO. Cells were drug treated at a range of concentrations in REBM supplemented with BulletKit (Lonza) for 3 hours prior to infection. Cells were infected with BK-Dunlop in media and appropriate drug dilution. At 1 hpi infectious media was removed, cells gently washed with PBS and media containing appropriate drug dilutions was added. At 48 hpi cells were either fixed in 3% formaldehyde for microscopy, or harvested by scraping up into fresh drug-free media.
TSG101 inhibitor Ilaprazole (Sigma-Aldrich) was diluted in 100% DMSO. Cells were treated at a range of inhibitor concentrations and combinations, in appropriate media for the cell type used, for either 3 hours prior to infection (HSV-1, Alphavirus and Flavivirus infections) or 1 hour post infection (BKPyV infection).

BKPyV [2] = test: Western blot of BKPyV viral protein expression (LTAg, VP1) in RPTE/TERT1 cells; format: cell-based, BK polyomavirus; conditions: MOI 1
Protocol: (C)(i) Effect of PF-9366 on viral early and late gene and cellular MAT2A expression: Cells were infected with BKPyV (MOI 3) in media containing appropriate drug concentrations. At 1 hpi infectious media was removed, cells were washed and fresh media with appropriate drug concentrations was added. Cells were harvested at 48 hpi and a western blot performed. Membranes were blotted for viral late gene VP1, LTAg, cellular MAT2A/MAT1A, and tubulin as a loading control.
(iii) Viral gene expression is modulated in response to PF-9366: The density of BKPyV VP1 and LTAg expression were measured, normalized to tubulin loading control (LiCor Image Studio Software), n=3.
as §1, §2
It has previously been noted by Quinlan et al. (Nat Chem Biol. 2017 13 (7): 785-792) that treatment with PF-9366 can increase MAT2A expression as a compensatory mechanism within cells. To investigate this, cells were once again treated with a range of PF-9366 for 3 hours prior to infection (or DMSO treated). Cells were infected with BKPyV (MOI 3), washed at 1 hpi, and fresh drug treated media was added. At 48 hpi cells were harvested and protein expression was analysed by western blotting (FIG. 3C(i)). MAT2A expression was quantified from band intensities, normalised to the tubulin loading control and plotted (FIG. 3C(ii), n=3). A clear increase in the cellular expression of MAT2A was observed, up to an 8-fold increase at 10 μM PF-9366. Western blot analysis was also conducted on early viral gene (LTAg) and late viral gene (VP1) expression (FIG. 3C(iii), n=3).
Cell lysate preparation and western blots were performed as described in Ren et al. (J Gen Virol. 2012 February; 93 (Pt 2): 319-329). Primary antibodies used were ab53977 (VP1), PAb416 (LTAg), sc-166452 (MAT2A/1A), ab110226 (VP16), sc-53070 (ICP0), anti-Zika E Protein, and either anti-GAPDH or anti-tubulin as a loading control, followed by IRDye 680LT-, or IRDye 800CW-conjugated secondary antibodies. Imaging was performed using the LI-COR Odyssey Infrared Imaging system. Quantification was performed using LI-COR Image Studio Software.

RPTE/hTERT cells = test: Cell viability assay, CellTiter-Blue fluorescence
Protocol: RPTE/hTERT cells were treated with MAT2A inhibitors at increasing concentrations for 48 hrs and assayed for cell viability using CellTiter-Blue fluorescence. Experiments were conducted using biological triplicates.
Experiment was conducted using biological triplicates.
Cell viability was assessed using the Cell-Titer-Blue assay (Promega), following manufacturers guidelines.

[3] = 125 nM to 1 μM, dose dependent, 48 hr post infection

CN(C)c1nc(=O)n(-c2ccccc2)c2cc(Cl)ccc12 [AZ28]
inhibition of BKPyV replication (total infectious BKPyV, FFU titre) (BKPyV [1]; 125 nM, 250 nM, 500 nM and 1 μM, 48 hr post infection): significant dose dependent inhibition
early viral protein (LTAg) levels (western blot) (BKPyV [2]; [3]): reduced
late viral protein (VP1) levels (western blot) (BKPyV [2]; [3]): reduced
effect on cell viability and metabolism (RPTE/hTERT cells; at concentrations inhibiting BKPyV replication, 48 hrs): little effect

COc1ccnc(C[S+]([O-])c2nc3cc(-n4cccc4)ccc3[nH]2)c1C (stereo not shown) [Ilaprazole]
BKPyV viral replication (FFU titre) (BKPyV [1]; Ilaprazole alone): significantly inhibit
BKPyV protein expression (LTAg and VP1, western blot) (BKPyV [2]; Ilaprazole alone, 48 and 96 hr PI): significantly inhibit
effect on cell viability (RPTE/hTERT cells; Ilaprazole alone, every 48 hr until 144 hr): little effect
